Legend:
[1] = test system: neuroblastoma cells CHLA255; test: Cell viability assay (live cell count) on cultured neuroblastoma cells CHLA255; type: cell-based; conditions: cisplatin 500 nM once a day, combination with electromagnetic field 2 hours a day, FIG. 6
Description: Cell Lines and Methods of Culture: Neuroblastoma cells, CHLA255, which are adherent cells, are grown in 37° C. incubator with 10% fetal calf serum in McCoy's medium containing 5% carbon dioxide and saturated water vapor. Cell viability assay: Neuroblastoma cells, CHLA255, were seeded in 6-well plates at a density of 1×10^5 cells/well. […] Statistical Analysis: Each irradiation conditions repeated three times, each three holes, the results were mean±standard error, the results do T test, with P<0.05 as a significant difference in indicators.

[2] = test system: nephroblastoma cells G401; test: Cell viability assay (live cell count) on cultured nephroblastoma cells G401; type: cell-based; conditions: cisplatin 500 nM once a day, combination with electromagnetic field 2 hours a day, FIG. 5
Description: Cell Lines and Methods of Culture: Nephroblastoma cells G401, adherent cells, were cultured in McCoy's medium with 10% fetal bovine serum at 37° C. in an incubator containing 5% carbon dioxide and saturated water vapor. Cell viability assay: […] cells were seeded into 6-well plates at a density of 1×10^5 cells/well. […] Statistical Analysis: Each irradiation conditions repeated three times, each three holes, the results were mean±standard error, the results do T test, with P<0.05 as a significant difference in indicators.

Nephroblastoma G401 = test: Tumor growth inhibition in vivo, G401 nephroblastoma model in nude mice; conditions: cisplatin 20 mg/kg three times a week, irradiation about 90 minutes a day, P<0.05, FIG. 9
From the text: Example 7: G401 nephroblastoma model was established in nude mice and the animals were randomly divided into 4 groups with 8 mice in each group. […] Tumor models were established: Male nude mice were infants aged 3-4 weeks old. Nephroblastoma G401 was inoculated into the axilla and the number was 5×10^6/volume. The volume was 200 microliters. After one week of inoculation, the tumor could be touched. The animals were randomized groups, control group, irradiation group, cisplatin group, combined groups, treated separately. […] The control animals were placed in the animals irradiated with electromagnetic field-free coils for 90 minutes every day, and injected intraperitoneally with the same volume of physiology Saline; all animals were sacrificed 3 days after the neck, the eyeball to take whole blood, EDTA anticoagulant, after centrifugation to take the biochemical indicators of blood plasma, remove underarm growth tumor, weighed tumor weight, tissue cryopreservation. Statistical analysis: Each group of 8 animals, the results were mean±standard deviation, the results of T test, P<0.05 as a significant difference in indicators.

N.N.[Cl][Pt][Cl] [cisplatin]
cell inhibition rate [1]: increase
cell proliferation (number of cells) [1]: slow proliferation
cell inhibition rate [2]: increase
cell proliferation (number of cells) [2]: slow proliferation
tumor weight compared with the control group (Nephroblastoma G401): no significant difference

Source: US11364390B2, “Apparatus for treating pathological cells” (priority 2017, dated 2022)
